The source of these data is paper PMC9786881 (Viruses, 2022).

The structures appear in SMILES notation.

This test addresses RABV NΔ23^0 (nucleoprotein aa 24-450) (Rabies virus, UniProt Q8JXF6). Type of test: binding, rabies virus (strain CVS-11).

For `CC[C@H](C)[C@H](NC(=O)[C@H](C)NC(=O)[C@H](CO)NC(=O)[C@@H]1CCCN1C(=O)[C@H](CC(N)=O)NC(=O)[C@@H](NC(=O)[C@H](Cc1ccccc1)NC(=O)[C@@H](NC(=O)[C@H](CCCCN)NC(=O)[C@H](CO)NC(=O)[C@H](CCSC)NC(=O)[C@H](CO)NC(=O)[C@H](C)NC(=O)CN)[C@@H](C)CC)C(C)C)C(=O)N[C@@H](CCCNC(=N)N)C(=O)N[C@@H](C)C(=O)NCC(=O)N[C@@H](CC(C)C)C(=O)N[C@@H](C)C(=O)N[C@@H](CC(=O)O)C(=O)N[C@@H](CC(C)C)C(=O)N[C@@H](CCC(=O)O)C(=O)N[C@@H](CCSC)C(=O)N[C@@H](C)C(=O)N[C@@H](CCC(=O)O)C(=O)N[C@@H](CCC(=O)O)C(=O)N[C@H](C(=O)N[C@H](C(=O)N[C@@H](CC(=O)O)C(=O)N[C@@H](CC(C)C)C(=O)N[C@H](C(=O)N[C@@H](CC(N)=O)C(=O)N[C@@H](CCCNC(=N)N)C(=O)N[C@@H](CC(N)=O)C(=O)N[C@H](C(=O)N[C@@H](CCC(=O)O)C(=O)N[C@@H](CC(=O)O)C(=O)N[C@@H](CC(N)=O)C(=O)N[C@@H](CCC(N)=O)C(=O)N[C@@H](C)C(=O)N[C@@H](Cc1c[nH]cn1)C(=O)N[C@@H](CC(C)C)C(=O)N[C@@H](CCC(N)=O)C(=O)N[C@@H](CSC1CC(=O)N(CCNC(=O)c2ccc3c(c2)C(=O)OC32c3ccc(O)cc3Oc3cc(O)ccc32)C1=O)C(=O)N[C@@H](CCC(=O)O)C(=O)O)[C@@H](C)CC)[C@@H](C)CC)C(C)C)[C@@H](C)O` (stereo partly shown) [P42-G41C*], the “half time of dissociation” value is recorded as 256 min.
